Data from paper PMC4941645, “Oxidative Stress Induced by Pt(IV) Pro-drugs Based on the Cisplatin Scaffold and Indole Carboxylic Acids in Axial Position” (Scientific Reports, 2016).

Experiments:
[1] = Log P octanol/water, shake flask method with ICP-MS; type: physicochemical; conditions: n-octanol / 0.9% NaCl water, Pt by ICP-MS
Protocol: Partition coefficients (logP values) for octanol/water partition were determined in order to examine whether a correlation exists between lipophilicity and accumulation into cells. The log P values obtained (Table 3) give the trend in lipophilicity as mono indole acid complex < succinate complex < acetate complex < bis indole acid complex < benzoate complex for both the IAA and the IPA series.
The logP values of the Pt(IV) compounds were determined using the shake flask method. The respective Pt(IV) complex was dissolved in 0.9% NaCl (w/v) ultrapure water (presaturated with n-octanol). The solutions were sonicated and filtered to remove undissolved Pt(IV) compounds. The initial Pt concentrations were determined by ICP-MS. Subsequently, the Pt(IV) solutions were added to an equal volume of n-octanol (presaturated with 0.9% NaCl (w/v) ultrapure water). The heterogeneous mixtures were shaken vigorously for 30 min before centrifuging at 4000 rpm for 30 min to achieve phase separation. The final Pt concentration in the aqueous phase was determined again by ICP-MS. The logarithm of the ratio of Pt concentrations in the organic and aqueous phases was calculated to determine the logP values. All experiments were done in duplicate.

[2] = system: 2008 ovarian cancer cells; assay: MTT cytotoxicity test, cisplatin-sensitive 2008; type: cell-based, human; conditions: 2008 cisplatin-sensitive, 72 h, ± S.D.
Protocol: The cytotoxic properties of the complexes were also evaluated in a pair of tumor cell lines suitably selected for their sensitivity and resistance to cisplatin (adenocarcinoma cells 2008/C13^*). Cross-resistance profiles were evaluated by means of the resistance factor (RF), defined as the ratio between IC50 values calculated for the resistant cells and those obtained with the sensitive ones (Table 2). The phenomenon of cisplatin resistance is multifactorial in nature. Nevertheless, the main molecular mechanisms involved in drug resistance in C13* cancer cells have largely been identified. Indeed, in this cell line resistance is correlated to high cellular glutathione and thioredoxin reductase levels, reduced cellular drug uptake and enhanced repair of DNA damage. […] The RF values calculated for all derivatives were six- to nine-fold lower than that of cisplatin, clearly indicating the absence of cross-resistance.
(§1) Cisplatin was dissolved in 0.9% NaCl solution.
Triplicate cultures were established for each treatment.

[3] = Stability in physiological saline by mass spectrometry; type: physicochemical; conditions: 0.9% NaCl
Protocol: Ten indole carboxylic acid Pt(IV) complexes with IAA (indole-3-acetic acid, 1A–5A) and IPA (indole-3-propionic acid, 1P–5P) were synthesized and the structures are depicted in Fig. 3. The monocarboxylato complexes 1A and 1P were prepared by reacting oxoplatin, c,c,t-[Pt(NH3)2Cl2(OH)2], with 0.8 eq. of the activated NHS-ester of the corresponding indole carboxylic acid. The dicarboxylato complexes with two indole acids in axial position (2A and 2P) were obtained using an excess of the NHS-ester activated acid (20 eq.), since the second hydroxo group of oxoplatin is much less reactive than the first one. The unsymmetrically substituted complexes (3A–5A and 3P–5P) were prepared by reaction of the monocarboxylate complexes 1A and 1P with the corresponding anhydrides. We chose three different anhydrides (benzoic, acetic and succinic anhydride) to vary the lipophilicity of the resulting Pt(IV) complexes. All the synthesized Pt(IV) complexes were characterized using elemental analysis, ESI-MS, FT-IR, ^1H and ^195Pt NMR spectroscopy. The purity of the complexes has been assessed through elemental analysis and–where solubility was not an issue–by high performance liquid chromatography (HPLC). The dicarboxylato complexes are poorly soluble in organic solvents. The proton NMR spectra of the complexes in DMSO-d6 show the typical signal of the NH3 protons which is a multiplet at around 6 ppm for the monocarboxylato complexes 1P and 1A (typical ^1JNH and ^2JPtH values around 50 Hz) while it is a broad signal around 6.5 ppm for the bis-substituted complexes (2–5A and 2–5P, Supplementary Information)[44]. The mass spectra of the complexes show a peak in the negative mode with the typical platinum isotope pattern corresponding to M − H^− or M + Cl^−. Stability studies on representative examples of the complexes (1A, 1P, 3A and 3P) via mass spectrometry confirm that the complexes are stable in physiological saline (0.9% NaCl) for at least 48 h (Supplementary Information).
Complexes 1A, 1P, 3A and 3P where dissolved in a minimum amount of DMF and diluted 1:20 with physiological saline (0.9% NaCl). Mass spectra were recorded at t = 0 and after 48 hours.

[4] = system: HCT-15 colon carcinoma cells; assay: MTT cytotoxicity test, HCT-15; type: cell-based, human; conditions: for IC50: HCT-15, 72 h, MTT, ± S.D.; for times more effective than cisplatin: HCT-15 cells
Protocol: (§2) The cytotoxic activity of the complexes and of the uncoordinated ligands was evaluated by the MTT test on a panel of human tumor cell lines containing examples of pancreatic (BxPC3), colorectal (HCT-15), breast (MCF-7), cervical (A431), and lung (A549) cancers as well as of melanoma (A375). For comparison purposes, the cytotoxicity of cisplatin was evaluated under the same experimental conditions.
as §1
(§3) Human breast (MCF-7), colon (HCT-15), lung (A549) and pancreatic (BxPC3) carcinoma cell lines together with melanoma (A375) cells were obtained from American Type Culture Collection (ATCC, Rockville, MD). The human ovarian cancer cell line 2008 and its cisplatin resistant variant, C13*, were kindly provided by Prof. G. Marverti (Department of Biomedical Science of Modena University, Italy). Human cervical carcinoma (A431) cells were kindly provided by Prof. F. Zunino (Division of Experimental Oncology B, Istituto Nazionale dei Tumori, Milan, Italy). Cell lines were maintained in the logarithmic phase at 37 °C in a 5% carbon dioxide atmosphere using the following culture media containing 10% fetal calf serum (Euroclone, Milan, Italy), antibiotics (50 units/mL penicillin and 50 μg/mL streptomycin) and 2 mM L-glutamine: (i) RPMI-1640 medium (Euroclone) for 2008, C13*, MCF-7, HCT-15, A431 and BxPC3 cells, (ii) F-12 HAM’S (Sigma Chemical Co.) for A549 cells, iii) DMEM (Sigma Chemical Co.) for A375 cells.
(§4) The growth inhibitory effect toward tumor cells was evaluated by means of the MTT assay. Briefly, (3–8) × 10^3 cells/well, dependent upon the growth characteristics of the cell line, were seeded in 96-well microplates in growth medium (100 μL). After 24 h, the medium was removed and replaced with fresh medium containing the compound to be studied at the appropriate concentration. Triplicate cultures were established for each treatment. After 24, 48, or 72 h, each well was treated with 10 μL of a 5 mg/mL MTT saline solution and, after 5 h of incubation, 100 μL of a sodium dodecylsulfate (SDS) solution in 0.01 M HCl was added. After an overnight incubation, cell growth inhibition was detected by measuring the absorbance of each well at 570 nm using a Bio-Rad 680 microplate reader. The mean absorbance for each drug dose was expressed as a percentage of the control, untreated well absorbance and plotted vs drug concentration. The IC50 values, the drug concentrations that decrease the mean absorbance at 570 nm to 50% of that of untreated control wells, were calculated from the dose–response curves with the four-parameter logistic model (4PL). The final value is the mean ± S.D. of at least three independent experiments performed in triplicate.

[5] = system: A549 lung carcinoma cells; assay: cells; conditions: for IC50: A549, 72 h, MTT, ± S.D.
Protocol: as §2, §1, §3, §4

SMILES	Log P (octanol/water) [1]	IC50 [2]	stable in physiological saline [3]	IC50 [4]	IC50 [5]	times more effective than cisplatin [4]	times more cytotoxic than cisplatin [5]
[NH2][Pt]([NH2])([Cl])([Cl])([O]C(=O)Cc1c[nH]c2ccccc12)[O]C(=O)c1ccccc1 [Complex 3A]	−0.037 ± 0.04	9.97 ± 3.18 µM	at least 48 h	3.67 ± 1.31 µM	2.59 ± 0.13 µM	–	–
[NH2][Pt]([NH2])([OH])([Cl])([Cl])[O]C(=O)Cc1c[nH]c2ccccc12 [Complex 1A]	−0.220 ± 0.04	2.89 ± 1.22 µM	at least 48 h	9 ± 3.13 µM	3.62 ± 0.23 µM	about two times	four times
CC(=O)[O][Pt]([NH2])([NH2])([Cl])([Cl])[O]C(=O)Cc1c[nH]c2ccccc12 [Complex 5A]	−0.130 ± 0.05	41.2 ± 0.75 µM	–	44.75 ± 0.07 µM	2.8 ± 0.09 µM	–	–
[NH2][Pt]([NH2])([Cl])([Cl])([O]C(=O)CCC(=O)O)[O]C(=O)Cc1c[nH]c2ccccc12 [Complex 4A]	−0.190 ± 0.06	> 50 µM	–	> 50 µM	18.1 ± 4.32 µM	–	–
[NH2][Pt]([NH2])([OH])([Cl])([Cl])[O]C(=O)CCc1c[nH]c2ccccc12 [Complex 1P, cis,cis,trans-[Pt(NH3)2Cl2(IPA)(OH)]]	−0.110 ± 0.05	1.45 ± 0.37 µM	at least 48 h	3.66 ± 0.91 µM	2.66 ± 0.54 µM	about two times	four times
